One assay deals with Septoria tritici (St). Nature of the assay: Growth inhibition assay of fungal pathogens, St. The class given is cell-based. Particulars: Zymoseptoria tritici, 48 h, read-out: Concentration at 90% Inhibition St, Septoria tritici. The method, boiled down:
(§1)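 Inhibition percentages reflect 48 h OD600 and visual scores relative to a 2% DMSO control. Test concentrations were 50, 10, 2 ppm or 2, 0.4, 0.08 ppm final, applied to spores in 17% V8 medium.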

The subject of assay [1] is Collectotrichum graminicola (Cg). Nature of the assay: Growth inhibition assay of fungal pathogens, Cg. Particulars: 48 h, read-out: Concentration at 90% Inhibition Cg, Collectotrichum graminicola. The class given is cell-based. A digest of the protocol: as §1
The test system of the next assay is C. krusei. Nature of the assay: Antifungal Activity Assay (broth microtiter MIC), C. krusei. The class given is cell-based, Candida krusei. The conditions noted are these: Pichia kudriavzevii, ATCC6258, 48 h. A digest of the protocol:
(§2)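 MICs were scored by eye at 48 h relative to the growth control. Plates followed CLSI M27-A3, with Candida suspensions in RPMI 1640+MOPS giving a final 2.5×10^3 CFU/mL; the colonies came from Sabouraud agar grown overnight at 35 °C.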

Another assay concerns Botrtyis cinerea (Bc). Nature of the assay: Growth inhibition assay of fungal pathogens, Bc. It is filed as cell-based. The conditions noted are these: 48 h, read-out: Concentration at 90% Inhibition Bc, Botrtyis cinerea. A digest of the protocol:
as §1

Assay [2] has as its system Fusarium moniliforme (Fm). Nature of the assay: Growth inhibition assay of fungal pathogens, Fm. The class given is cell-based. The method, boiled down: as §1
Assay [3] relates to Fusarium virguliforme (Fv). Nature of the assay: Growth inhibition assay of fungal pathogens, Fv. The class given is cell-based. The conditions noted are these: 48 h. The method, boiled down: as §1
The subject of another assay is Rhizoctonia solani (Rs). Nature of the assay: Growth inhibition assay of fungal pathogens, Rs. It is filed as cell-based. The conditions noted are these: 48 h.
The test system of a further assay is Diplodia maydis (Dm). Nature of the assay: Growth inhibition assay of fungal pathogens, Dm. The class given is cell-based. Particulars: Stenocarpella maydis, 48 h, read-out: Concentration at 90% Inhibition Dm, Diplodia maydis. A digest of the protocol: as §1
A further assay has as its system C. albicans. Nature of the assay: Antifungal Activity Assay (broth microtiter MIC), C. albicans. It is filed as cell-based, Candida albicans. Particulars: Candida albicans, ATCC90028, 48 h. The method, boiled down: as §2
In another assay the test system is C. parapsilosis. Nature of the assay: Antifungal Activity Assay (broth microtiter MIC), C. parapsilosis. The class given is cell-based, Candida parapsilosis. Particulars: Lodderomyces parapsilosis, ATCC22019, 48 h. The method, boiled down:
as §2

[4] abbreviates: growth inhibition at 48 hours vs 2% DMSO control.
The mark [5] stands for this setting: growth inhibition vs 2% DMSO control at 48 hours.

Converted amounts (≈) assume the structure as drawn. Like-named read-outs stand apart in the source and are kept apart here. Bounds are passed on as bounds.

Consider `COc1ccc(F)cc1[C@H](Cn1c(=O)n(C(C)(C)C(=O)NC(C)C)c(=O)c2c(C)c(-n3nccn3)sc21)OC1CCC(=O)CC1` [Compound I-32, (R)-2-(1-(2-(5-fluoro-2-methoxyphenyl)-2-((4-oxocyclo-hexyl)oxy)ethyl)-5-methyl-2,4-dioxo-6-(2H-1,2,3-triazol-2-yl)-1,4-dihydro-thieno[2,3-d]pyrimidin-3(2H)-yl)-N-isopropyl-2-methylpropanamide], for which the IC90 in the assay on Septoria tritici (St) (setting [4]) was over 50 µg/mL; in the assay on Septoria tritici (St) (setting [5]), over 50 µg/mL; in assay [1] (setting [4]) it was 2 µg/mL (≈ 3.12 µM); in assay [1] (setting [5]) it was 2 µg/mL (≈ 3.12 µM); with Botrtyis cinerea (Bc) (setting [4]), 0.08 µg/mL (≈ 0.125 µM); in the assay with Botrtyis cinerea (Bc) (setting [5]), 0.08 µg/mL (≈ 0.125 µM). The IC90 is 0.08 µg/mL (≈ 0.125 µM) in assay [2] (Fusarium verticillioides, 48 h, read-out: Concentration at 90% Inhibition Fm); 0.4 µg/mL (≈ 0.624 µM) in assay [3] (read-out: Concentration at 90% Inhibition Fv, Fusarium virguliforme, growth inhibition at 48 hours vs 2% DMSO control); 0.4 µg/mL (≈ 0.624 µM) in [3] (read-out: Concentration at 90% Inhibition Fv, Fusarium virguliforme, growth inhibition vs 2% DMSO control at 48 hours); 0.08 µg/mL (≈ 0.125 µM) in the assay on Rhizoctonia solani (Rs) (read-out: Concentration at 90% Inhibition Rs, Rhizoctonia solani, mycelial plugs, growth inhibition at 48 hours vs 2% DMSO control); 0.08 µg/mL (≈ 0.125 µM) in the assay with Rhizoctonia solani (Rs) (read-out: Concentration at 90% Inhibition Rs, Rhizoctonia solani, mycelial plugs, growth inhibition vs 2% DMSO control at 48 hours); 0.08 µg/mL (≈ 0.125 µM) in the assay with Diplodia maydis (Dm) (setting [4]). In the assay on Diplodia maydis (Dm) (setting [5]), the IC90 is 0.08 µg/mL (≈ 0.125 µM). Further, the MIC (commonly the smallest concentration in the dilution series that meets the test's criterion for growth inhibition) with C. krusei (read-out: MIC, C. krusei ATCC 6258, Table 3a, 3 replicates, MIC recorded at 48 h) fell in the range of 0.06 to 0.24 µg/mL (≈ 0.0936 to 0.375 µM); in the assay on C. krusei (read-out: MIC, C. krusei ATCC 6258, Table 3b (additional results), 3 replicates, MIC recorded at 48 h) it was 0.06 to 0.249 µg/mL (≈ 0.0936 to 0.389 µM); in the assay with C. albicans (read-out: MIC, C. albicans ATCC 90028, Table 3a, 3 replicates, MIC recorded at 48 h), 0.06 to 0.24 µg/mL (≈ 0.0936 to 0.375 µM); in the assay with C. albicans (read-out: MIC, C. albicans ATCC 90028, Table 3b (additional results), 3 replicates, MIC recorded at 48 h), 0.06 to 0.249 µg/mL (≈ 0.0936 to 0.389 µM); with C. parapsilosis (read-out: MIC, C. parapsilosis ATCC 22019, Table 3a, 3 replicates, MIC recorded at 48 h), 0.25 to 1 µg/mL (≈ 0.39 to 1.56 µM); in the assay with C. parapsilosis (read-out: MIC, C. parapsilosis ATCC 22019, Table 3b (additional results), 3 replicates, MIC recorded at 48 h), 0.25 to 1 µg/mL (≈ 0.39 to 1.56 µM). Further, the “Concentration at 90% Inhibition Fm” value in assay [2] (Fusarium moniliforme, growth inhibition at 48 hours vs 2% DMSO control) is listed as “AA (compound concentration of 0.08 ppm at 90% inhibition of fungal pathogens)”.

Source of the values: patent US10800791B2, “Triazole ACC inhibitors and uses thereof” (Gilead Apollo, LLC, priority 2015, dated 2020).
